In ChEMBL document CHEMBL1148744, “Synthesis and antiviral and cytostatic evaluations of the new C-5 substituted pyrimidine and furo[2,3-d]pyrimidine 4',5'-didehydro-L-ascorbic acid derivatives” (J Med Chem, 2007) one finds MIC data, which are given here for four compounds.

Values after ≈ are worked out from the molar mass of the structure shown.

In the assay the test system is Vaccinia virus. Nature of the assay: Antiviral activity against Vaccinia virus in HEL cells assessed as reduction of virus-induced cytopathogenicity. In kind it is functional. Conditions: Orthopoxvirus vaccinia. For orientation: Protection from cytopathic effect is a common read-out in antiviral testing.
On to `Nc1nc2c(ncn2COCCO)c(=O)[nH]1` [ACYCLOVIR], for which the MIC was greater than 250 µM. Then `O=c1[nH]c(=O)n([C@H]2C[C@H](O)[C@@H](CO)O2)cc1/C=C/Br` [BRIVUDINE], with 2 µM (≈ 0.666 µg/mL); and `Nc1nc2c(ncn2COC(CO)CO)c(=O)[nH]1` [GANCICLOVIR], with 100 µM (≈ 25.5 µg/mL); and `NC(=O)c1ncn([C@@H]2O[C@H](CO)[C@@H](O)[C@H]2O)n1` [RIBAVIRIN], with 150 µM (≈ 36.6 µg/mL).
